Measured values: ChEMBL document CHEMBL4145484 (Eur J Med Chem, 2018)

How the values were obtained:
Homo sapiens = organism: Homo sapiens; assay: Selectivity index, ratio of IC50 for recombinant human MAO-A to IC50 for recombinant human MAO-B
[1] = molecular target: T1, Amine oxidase [flavin-containing] A (Homo sapiens, UniProt P21397); assay: Inhibition of recombinant human MAO-A using p-tyramine as substrate preincubated for 15 mins followed by substrate addition measured over 15 mins by Amplex red reagent-based fluorimetric method
T1 sequence (P21397 whole entry): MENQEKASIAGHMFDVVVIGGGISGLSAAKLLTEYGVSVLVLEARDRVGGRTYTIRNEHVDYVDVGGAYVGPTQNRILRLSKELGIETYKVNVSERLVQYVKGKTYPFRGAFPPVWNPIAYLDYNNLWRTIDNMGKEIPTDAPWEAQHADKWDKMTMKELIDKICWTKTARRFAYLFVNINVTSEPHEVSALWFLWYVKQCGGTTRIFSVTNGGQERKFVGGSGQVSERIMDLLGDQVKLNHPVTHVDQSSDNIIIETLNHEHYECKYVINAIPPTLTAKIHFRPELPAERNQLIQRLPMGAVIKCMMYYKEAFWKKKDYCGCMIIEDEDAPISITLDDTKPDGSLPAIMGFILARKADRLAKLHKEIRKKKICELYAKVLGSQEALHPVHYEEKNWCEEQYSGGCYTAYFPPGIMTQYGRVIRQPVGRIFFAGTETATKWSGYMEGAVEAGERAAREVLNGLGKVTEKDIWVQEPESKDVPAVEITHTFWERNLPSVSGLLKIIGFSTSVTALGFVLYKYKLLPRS

[2] = molecular target: T2, Amine oxidase [flavin-containing] B (Homo sapiens, UniProt P27338); assay: Inhibition of recombinant human MAO-B using p-tyramine as substrate preincubated for 15 mins followed by substrate addition measured over 15 mins by Amplex red reagent-based fluorimetric method
T2 sequence (P27338 whole entry): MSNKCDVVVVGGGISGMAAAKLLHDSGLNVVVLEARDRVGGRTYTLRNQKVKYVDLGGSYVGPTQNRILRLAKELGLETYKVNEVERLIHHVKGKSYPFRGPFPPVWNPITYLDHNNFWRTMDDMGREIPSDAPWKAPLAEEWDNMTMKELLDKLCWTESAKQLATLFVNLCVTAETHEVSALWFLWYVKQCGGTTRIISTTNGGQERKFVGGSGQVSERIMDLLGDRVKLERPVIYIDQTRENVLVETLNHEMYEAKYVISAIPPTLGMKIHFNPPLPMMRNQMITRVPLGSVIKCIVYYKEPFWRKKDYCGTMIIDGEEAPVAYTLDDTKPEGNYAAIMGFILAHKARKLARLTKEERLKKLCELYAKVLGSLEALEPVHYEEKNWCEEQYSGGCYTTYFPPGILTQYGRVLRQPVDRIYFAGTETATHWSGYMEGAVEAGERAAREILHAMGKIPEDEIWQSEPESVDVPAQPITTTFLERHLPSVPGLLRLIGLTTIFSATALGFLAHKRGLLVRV

SMILES	Ratio IC50 (Homo sapiens)	IC50 [1]	IC50 [2]
C#CCNC1CCc2c(OCc3cccc(C)c3)cccc21 (centres undefined)	20.4	11.2 µM	0.55 µM
C#CCNC1CCc2c(OCCOc3ccccc3)cccc21 (centres undefined)	3.08	14.1 µM	4.57 µM
C#CCNC1CCc2c(SCc3ccccc3)cccc21 (centres undefined)	> 9.62	> 60 µM	6.24 µM
C#CCNC1CCc2c(OCc3ccc(C(F)(F)F)cc3)cccc21 (centres undefined)	> 43.7	> 60 µM	1.39 µM
C#CCNC1CCc2c(OCCCOc3ccccc3)cccc21 (centres undefined)	> 5.87	> 60 µM	10.2 µM
C#CCNC1CCc2c(OCCCOc3cc(C)c(Cl)c(C)c3)cccc21 (centres undefined)	> 8.68	> 60 µM	6.91 µM
C#CCNC1CCc2c(OCCc3ccc(Cl)cc3)cccc21 (centres undefined)	4.07	10.2 µM	2.51 µM
C#CCNC1CCc2c(OCCCOc3cccc(I)c3)cccc21 (centres undefined)	> 3.33	> 60 µM	18 µM
C#CCNC1CCc2c(OCc3ccc4ccccc4c3)cccc21 (centres undefined)	> 9.66	> 60 µM	6.21 µM
C#CCNC1CCc2c(OCCOc3cccc(NC(=O)CCl)c3)cccc21 (centres undefined)	> 8.68	> 60 µM	6.91 µM
C#CCNC1CCc2c(OCc3cccc(Br)c3)cccc21 (centres undefined)	14.7	9.55 µM	0.65 µM
C#CCNC1CCc2c(OCCCOc3cccc4ccccc34)cccc21 (centres undefined)		> 60 µM	> 60 µM
C#CCNC1CCc2c(OCCCOc3ccc(CC)cc3)cccc21 (centres undefined)	2.99	31.4 µM	10.5 µM
C#CCNC1CCc2c(OCCc3cccc(Cl)c3)cccc21 (centres undefined)	> 10.2	> 60 µM	5.87 µM
C#CCNC1CCc2c(OCc3ccccc3)cccc21 (centres undefined)	7.84	15.4 µM	1.97 µM
C#CCNC1CCc2c(OCCCOc3ccc(C(C)C)cc3)cccc21 (centres undefined)	7.93	42.7 µM	5.38 µM
C#CCNC1CCc2c(OCCOc3cccc4ccccc34)cccc21 (centres undefined)	> 17.7	> 60 µM	3.39 µM

Now from value to compound:

Ratio IC50 (Homo sapiens)	IC50 [1]	IC50 [2]	SMILES
5.12	7.22 µM	1.41 µM	C#CCNC1CCc2c(OCc3ccc(F)c(F)c3)cccc21 (centres undefined)
18.6	5.2 µM	0.28 µM	C#CCNC1CCc2c(OCc3cccc(F)c3)cccc21 (centres undefined)
1.5	8.3 µM	5.52 µM	C#CCNC1CCc2c(OCCOc3cccc(NC(C)=O)c3)cccc21 (centres undefined)
2.35	9.1 µM	3.87 µM	C#CCNC1CCc2c(OCCc3ccccc3)cccc21 (centres undefined)
466	9.33 µM	0.02 µM	C#CCNC1CCc2c(OCCc3cccc(NC(=O)c4ccc(Cl)cc4)c3)cccc21 (centres undefined)
3.97	4.33 µM	1.09 µM	C#CCNC1CCc2c(OCc3ccc(C)cc3)cccc21 (centres undefined)
4.17	7.8 µM	1.87 µM	C#CCNC1CCc2c(OCc3ccc(F)cc3)cccc21 (centres undefined)
21.2	7 µM	0.33 µM	C#CCNC1CCc2c(OCc3cccc(Cl)c3)cccc21 (centres undefined)
